In one experiment the test system is human IP receptor. In words: Receptor binding assay ([^3 H]-iloprost binding to human IP receptor expressed in COS7). The settings on record: test compound 1×10^-6 M; 10 nM [^3 H]-iloprost; 60 minutes, 30° C. The protocol: cDNA of human IP receptor was cloned and expressed in COS7 using pCDM8 vector in a similar manner to that described in the literatures [J. Biol. Chem., Vol. 269, No. 16, pp.12173-12178 (1994): Circulation, Vol. 90, No. 4, pp1643-1647 (1994) FEBS Letters 344 (1994) 74-78].
After transfection, cells which expressed human IP receptor were collected with ce l scraper at 4° C. and stored in -80° C.
The composition of assay buffer was as follows: 20 mM MES (pH 6.0), 10 mM MgCl2, 1 mM EDTA, and 0.1 mM PMSF. Frozen cells were thawed and aliquots (4.5×10^5 cells) were incubated for 60 minutes under shaking at 30° C. in plastic tubes in 100 μl of assay buffer with 10 nM of [^3 H]-iloprost in the presence or absence of the test compound (1×10^-6 M).
To determine the non-specific binding, iloprost at 10 μM was added. Each assay was preformed in duplicate. Reaction mixture was filtered through a Whatman GF/C glass filter to stop the reaction. After washing the filter with ice-cold assay buffer, the radioactivity of the filter was countered. Non-specific binding was subtracted from total binding to yield specific binding. The effect of the test compound was expressed as % inhibition of specific [^3 H]-iloprost binding.

The test system of experiment [1] is mean arterial blood pressure in conscious rats. Put plainly: Effect on mean arterial blood pressure in conscious rats. The format is in vivo, rat (male Sprague-Dawley). The settings on record: 10 mg/kg; intravenous (femoral vein). The protocol:
Male Sprague-Dawley rats, aged 8-9 weeks, were anesthetized with ether. A polyethylene cannula filled with heparin solution was inserted into the femoral artery of the rats to measure mean blood pressure. Mean blood pressure was measured with a pressure transducer and recorded on a polygraph. The test compound dissolved in ethanol, polyethylene glycol and distilled water (1:1:1) was administered through a polyethylene cannula inserted into the femoral vein in a volume of 1 ml/kg. Intravenous hypotensive effect of the test compound was expressed as the maximal decrease (R max). Briefly, R max was expressed as maximal % change compared to mean blood pressure prior to the administration of the test compound.

For experiment [2], the system named is human platelet aggregation induced by ADP. Put plainly: Inhibition of human platelet aggregation induced by ADP. In kind it is cell-based. The following applies: ADP 2.5 μM, platelet rich plasma, mean ± S.E. The protocol: Human blood was obtained from healthy volunteers and mixed with 1/10 volume of 3.8% sodium citrate, pH 7.4. The citrate blood was centrifuged at 150×g for 10 minutes and the platelet rich plasma (PRP) was removed. The remaining blood was centrifuged for a further 10 minutes at 1500×g to prepare the platelet poor plasma (PPP), which was used as a reference for platelet aggregation. Aggregation studies were carried out using HEMATRACER 801 (NBS, Japan), a 8 channel aggregometer. 25 μl of sample solution and 225 μl of PRP were mixed and stirred at 1000 rpm for 2 minutes at 37° C. Aggregation was induced by ADP solution at the final concentration of 2.5 μM.

Each structure is given as a SMILES string. Where a name gives a salt, the structure may show the parent alone.

We go through three compounds from US5863918A, “Naphthalene derivatives” (Fujisawa Pharmaceutical Co., Ltd., priority 1994, dated 1999).

Consider `O=C(O)COc1cccc2c1CC[C@](O)(COC(=O)N(c1ccccc1)c1ccccc1)C2` [Sodium salt of (2R)-[5-(carboxymethoxy)-2-hydroxy-1,2,3,4-tetrahydro-2-naphthyl]methyl N,N-diphenylcarbamate], for which the “Inhibition (%) of specific [^3 H]-iloprost binding” value in the experiment on human IP receptor stood at 96.5%.

As usually defined, the inhibition is the change of the read-out against control, counted positive when it falls. Consider `O=C(O)COc1cccc2c1CCC(O)(COC(=O)N(c1ccccc1)c1ccccc1)C2` (stereo not shown) [Test compound (1), Sodium salt of [5-(carboxymethoxy)-2-hydroxy-1,2,3,4-tetrahydro-2-naphthyl]methyl N,N-diphenylcarbamate], for which, in experiment [1], the “R max (%): maximal decrease (maximal % change compared to mean blood pressure prior to administration)” value is given as 27.5%. The same compound returned an inhibition at 0.1 µM in experiment [2] (1.0 × 10^-7 M) of 97 ± 1.2%.

On to `O=C(O)COc1cccc2c1CCC(Cn1nc(C(c3ccccc3)c3ccccc3)ccc1=O)C2` (stereo not shown) [Test compound (2), 2-[(1,2,3,4-Tetrahydro-5-carboxymethoxy-2-naphthyl)methyl]-6-diphenylmethyl-3(2H)-pyridazinone], for which 1 µM produced 100 ± 0.4% inhibition in experiment [2] (1.0 × 10^-6 M).
